Data from US20240287071A1, “CLASS OF IMIDAZOLIDINOPYRIMIDONE COMPOUNDS AND USE THEREOF IN TREATMENT OF HSCLPP-MEDIATED DISEASES” (SICHUAN UNIVERSITY, priority 2021, published 2024).
Where two headings read alike, the source gives them in different places.

Tests used:
HT29 = assay: CCK-8 in vitro anti-tumor proliferation assay; format: cell-based; conditions: Homo sapiens, HT-29; Table 4; 72 hours
Method: (§1) Example 3: In vitro anti-tumor proliferation assay of the compounds. The purpose of this experiment was to use CCK-8 to detect the in vitro inhibitory activity of the compounds of the present invention against the proliferation of tumor cells. The main reagents, such as RPMI-1640, DMEM high-glucose culture medium, fetal bovine serum, trypsin, etc., were purchased from Gibco BRL. CCK8 and DMSO were products of Sigma. For in vitro experiment, the test compounds were prepared as 10 mM stock solutions in DMSO and stored at −20° C. in the refrigerator in the dark for later use, then diluted to desired concentration with complete culture medium before use. The human lung cancer cells, colon cancer cells, breast cancer cells, glioblastoma cells, human myelomonocytic leukemia cells, and human Burkitt's lymphoma cells used in this experiment were all purchased from the American ATCC company and preserved in laboratory of the inventors. All the above cell lines were cultured in RPMI-1640 complete medium or DMEM complete medium containing 10% fetal bovine serum, 100 U/mL penicillin, and 100 μg/mL streptomycin under 5% carbon dioxide, 37° C. conditions. […] The previous culture medium was discarded, fresh culture medium was added to resuspend the cells, and then the cells were counted. According to the growth rate of different cells, the cell seeding concentration was determined, generally being 3000-5000 cells/well. After determining the seeding concentration, the cell suspension was diluted to desired concentrations with fresh culture medium, and then added to a 96-well plate with 100 μL per well, and 200 μL of PBS was added to the edge wells to prevent evaporation of the culture medium. On the second day, drug treatment was performed. First, the compounds were diluted into a series of gradients with culture medium, and then the drug solution was added to the 96-well plate, with 3 parallel wells for each gradient. Each plate set a blank control group, and ONC201 was used as the positive control group.

A549 = assay: CCK-8 in vitro anti-tumor proliferation assay; format: cell-based; conditions: Homo sapiens, read-out: IC50(uM) A549
Method: as §1

HCT116 = assay: CCK-8 in vitro anti-tumor proliferation assay; format: cell-based; conditions: Homo sapiens, HCT-116, 72 hours
Method: as §1

HCT115 = assay: CCK-8 in vitro anti-tumor proliferation assay; format: cell-based; conditions: Homo sapiens; Table 4; 72 hours
Method: as §1

SW480 = assay: CCK-8 in vitro anti-tumor proliferation assay; format: cell-based; conditions: Homo sapiens, Table 4, 72 hours
Method: as §1

MV-4-11 = assay: CCK-8 in vitro anti-tumor proliferation assay; format: cell-based; conditions: Homo sapiens, read-out: IC50(uM) MV-4-11
Method: as §1

DLD1 = assay: CCK-8 in vitro anti-tumor proliferation assay; format: cell-based; conditions: Homo sapiens, DLD-1, 72 hours
Method: as §1

A172 = assay: CCK-8 in vitro anti-tumor proliferation assay; format: cell-based; conditions: Homo sapiens, A 172; Table 3; 72 hours
Method: as §1

Raji = assay: CCK-8 in vitro anti-tumor proliferation assay; format: cell-based; conditions: Homo sapiens, read-out: IC50(uM) Raji
Method: as §1

SW620 = assay: CCK-8 in vitro anti-tumor proliferation assay; format: cell-based; conditions: Homo sapiens, SW-620, 72 hours
Method: as §1

[1] = system: human normal embryonic kidney cells (HEK293); assay: In vitro cytotoxicity assay, CCK-8; conditions: up to 50μM; FIG. 13
Method: (§2) CCK8 and DMSO were products of Sigma. For in vitro experiment, the test compounds were prepared as 10 mM stock solutions in DMSO and stored at −20° C. in the refrigerator in the dark for later use, then diluted to desired concentration with complete culture medium before use. […] The previous culture medium was discarded, fresh culture medium was added to resuspend the cells, and then the cells were counted. According to the growth rate of different cells, the cell seeding concentration was determined, generally being 3000-5000 cells/well. After determining the seeding concentration, the cell suspension was diluted to desired concentrations with fresh culture medium, and then added to a 96-well plate with 100 μL per well, and 200 μL of PBS was added to the edge wells to prevent evaporation of the culture medium. On the second day, drug treatment was performed.

HsClpP [2] = biological target: T1, HsClpP (Homo sapiens, UniProt Q16740); assay: Isothermal Titration calorimetry (ITC); format: binding; conditions: FIG. 3
Method: Isothermal Titration calorimetry experiments can measure the binding affinity between small molecules and proteins. Binding affinity is generally measured and reported through the equilibrium dissociation constant (Kd), where the smaller the Kd value, the higher the binding affinity of the ligand for its target. In the experiment, the loading-samples and proteins were placed in a degassing apparatus at 30° C., with a vacuum degree of 400 mmHg or higher, and degassed for 10 minutes. A 50 mL PBS buffer was prepared, and the sample cell and syringe were rinsed. After rinsing, the liquid in the sample cell was completely removed, and the degassed protein and small molecules were taken out. The sample cell was thoroughly washed with protein, and the syringe was rinsed with the small molecule solution 3-5 times. After washing, 250 μL of protein (0.5 mM) was extracted using the syringe, avoiding the formation of bubbles. Subsequently, 200 μL was injected into the sample cell. 50 μL of the small molecule solution (0.1 mM) was extracted using an injector, again avoiding the formation of bubbles. The titration syringe was loaded onto the instrument, and titration commenced after the instrument was balanced.

HsClpP [3] = biological target: T1, HsClpP; assay: HsClpP enzyme hydrolysis of short peptide substrate AC-WLA-AMC; conditions: for Regulatory efficacy 1 μM / Regulatory efficacy 10 μM: promoting hydrolysis of short peptide substrate by HsClpP, relative to blank control
Method: This study evaluated the regulatory activity of the compounds on HsClpP by examining the hydrolysis effects of HsClpP protein on the AC-WLA-AMC substrate . […] The small molecules and the HsClpP protein solution were added to a flat-bottomed black 96-well plate, with three replicate wells for each group. […] DMSO was used as a negative control instead of small molecules. The multiple of readings at different concentrations against the readings of DMSO group was recorded as an index for evaluation of hydrolysis activity. . . . GraphPad Prism was used to plot the obtained multiple values and calculate the EC50 values.

[4] = system: rat myocardial cells (H9C2); assay: In vitro cytotoxicity assay, CCK-8; conditions: FIG. 13
Method: as §2

SDHB and ATF4 = assay: Levels of SDHB and ATF4 in HCT116 cells; conditions: dose-dependently; FIG. 7
HCT116 cells [5] = assay: Wound-healing cell migration assay; format: cell-based, human; conditions: 24 hours; compared to the control group and the ONC201 group; FIG. 12
Excerpt: Example 12: In vitro Antitumor Cell Migration Assay of Preferred Compound. Studies have shown that increased expression of HsClpP is crucial for the proliferation and migration of certain cancer cell lines, while functional disruption of HsClpP in cancer cells can inhibit cell migration.
Wound-Healingcan be used to detect the invasive ability of adherent tumor cells. By observing the healing ability of tumor cells towards scratches under different conditions, the impact of the compound on the ability of tumor cell migration can be reflected.

HCT116 cells [6] = assay: Apoptosis, Annexin V/PI staining; conditions: 1.25 μM; FIG. 10
[7] = system: HCT116 CRC xenograft tumors; assay: HCT116 xenograft nude mouse model; conditions: 100 mg/kg oral, twice a week, six doses
Excerpt: (A) Observation of tumor size in mice after treatment; (B) Photographs of excised tumor tissue after treatment; (C) Relative change in mouse body weight during treatment; (D) Relative volume change of tumors during treatment. Measurements were taken every other day; N=6 animals per group.

[8] = Table 4, read-out: IC50 ( M) HCT116
[9] = Table 5, HCT116, read-out: IC50
[10] = Table 3, read-out: IC50(uM) DLD1
[11] = Table 4, read-out: IC50 ( M) DLD1
[12] = Table 3, read-out: IC50(uM) SW620
[13] = Table 4, read-out: IC50 ( M) SW620

T1 sequence (Q16740 57-277): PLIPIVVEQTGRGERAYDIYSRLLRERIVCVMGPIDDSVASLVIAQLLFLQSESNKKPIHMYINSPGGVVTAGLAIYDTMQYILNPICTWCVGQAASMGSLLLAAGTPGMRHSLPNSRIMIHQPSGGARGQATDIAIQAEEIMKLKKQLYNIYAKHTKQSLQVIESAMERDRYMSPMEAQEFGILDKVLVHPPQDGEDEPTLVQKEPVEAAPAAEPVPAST

Structure (SMILES) | IC50 (HT29) [nM] | IC50 (A549; A549, Table 3, 72 hours) [µM] | IC50 (HCT116; [8]) [M] | IC50 (HCT116; [9]) [M] | IC50 (HCT115) [nM] | IC50 (SW480) [nM] | IC50 (MV-4-11; MV4-11, Table 3, 72 hours) [µM] | IC50 (DLD1; [10]) [µM] | IC50 (DLD1; [11]) [µM] | IC50 (A172) [µM] | IC50 (Raji; Table 3, 72 hours) [µM] | IC50 (SW620; [12]) [µM] | IC50 (SW620; [13]) [µM] | Regulatory efficacy 1 μM (HsClpP [3]) | Regulatory efficacy 10 μM (HsClpP [3]) | further results
Cc1ccccc1CN1CCn2c1nc(=O)c1c2CCN(Cc2ccccc2)C1 [Compound 1, 7-benzyl-3-(2-methylbenzyl)-2,3,6,7,8,9-hexahydroimidazo[1,2-a]pyrido[3,4-e]pyrimidin-5(1H)-one] | 5300 | 2 | 4e-07 | 4e-07 | 1300 | 1100 | 0.8 | 0.2 | 0.5 | 0.5 | 1 | 0.6 | 0.6 | + + | + + | cytotoxicity on HEK293 cells [1]: no significant cytotoxicity; ITC thermodynamics of titration with HsClpP (AH, AS) (HsClpP [2]): AH<0, AS<0; Kd, affinity for HsClpP (HsClpP [2]; compared to ONC201): much higher affinity for HsClpP compared to ONC201; EC50 (HsClpP [3]; excitatory activity on HsClpP): 300 nM; inhibitory activity on H9C2 cells [4]: no significant inhibitory activity
O=c1nc2n(c3c1CN(Cc1ccccc1)CC3)CCN2Cc1ccc(Cl)cc1 [Compound 16, 7-benzyl-3-(4-chlorobenzyl)-2,3,6,7,8,9-hexahydroimidazo[1,2-a]pyrido[3,4-e]pyrimidin-5(1H)-one] | 70 |  | 8e-08 | 8e-08 | 250 | 100 |  |  | 0.1 |  |  |  | 0.17 | + + | + + | 
O=c1nc2n(c3c1CN(Cc1ccccc1)CC3)CCN2Cc1ccc(C(F)(F)F)cc1 [Compound 18, 7-benzyl-3-(4-trifluoromethylbenzyl)-2,3,6,7,8,9-hexahydroimidazo[1,2-a]pyrido[3,4-e]pyrimidin-5(1H)-one] |  | 0.2 |  | 3e-07 |  |  | 0.05 | 0.15 |  | 0.2 | 0.1 | 0.5 |  | + + | + + | EC50 (HsClpP [3]): 300 nM
O=c1nc2n(c3c1CN(Cc1ccccc1)CC3)CCN2Cc1ccc(F)cc1F [Compound 19, 7-benzyl-3-(2,4-difluorobenzyl)-2,3,6,7,8,9-hexahydroimidazo[1,2-a]pyrido[3,4-e]pyrimidin-5(1H)-one] | 80 | 0.4 | 9e-08 | 1e-07 | 120 | 120 | 0.05 | 0.2 | 0.09 | 0.15 | 0.1 | 0.15 | 0.09 | + + | + + | 
O=c1nc2n(c3c1CN(Cc1ccccc1)CC3)CCN2Cc1ccc(F)c(F)c1 [Compound 20, 7-benzyl-3-(3,4-difluorobenzyl)-2,3,6,7,8,9-hexahydroimidazo[1,2-a]pyrido[3,4-e]pyrimidin-5(1H)-one] | 50 | 0.5 | 1e-07 | 1e-07 | 200 | 120 | 0.025 | 0.5 | 0.15 | 0.1 | 0.1 | 0.14 | 0.15 | + + | + + | 
O=c1nc2n(c3c1CN(Cc1ccccc1)CC3)CCN2Cc1ccc(F)c(Br)c1 [Compound 21, 7-benzyl-3-(3-bromo-4-fluorobenzyl)-2,3,6,7,8,9-hexahydroimidazo[1,2-a]pyrido[3,4-e]pyrimidin-5 (1H)-one] |  |  |  |  |  |  |  |  |  |  |  |  |  | + + | + + | ITC thermodynamics of titration with HsClpP (AH, AS) (HsClpP [2]): AH<0, AS<0; ATF4 level (SDHB and ATF4): ATF4 accumulation; SDHB level (SDHB and ATF4): reduction in SDHB level; migration ability of HCT116 cells (HCT116 cells [5]): significantly inhibited
Cc1ccccc1CN1C(=O)C2=C(CCN(Cc3ccccc3)C2)N2CCN=C12 [ONC201, reference compound] |  |  |  |  |  |  |  |  |  |  |  |  |  |  |  | IC50 (A549; A549, 72 h): 10 µM; IC50 (MV-4-11; MV4-11, 72 h): 5 µM; IC50 (Raji; 72 h): 2.5 µM; cytotoxicity on HEK293 cells [1]: no significant cytotoxicity; apoptotic rate (HCT116 cells [6]): < 4.09%; inhibitory activity on H9C2 cells [4]: no significant inhibitory activity; ATF4 level (SDHB and ATF4): ATF4 accumulation; SDHB level (SDHB and ATF4): reduction in SDHB level
Cc1ccccc1CN1C(=O)C2=C(CCN(Cc3ccccc3)C2)N2CCN=C12 [ONC201·2HCl] |  |  |  |  |  |  |  |  |  |  |  |  |  |  |  | TGI (tumor growth inhibition) [7]: 57%
